Here are results for 19 compounds from patent US6894049B1, “Platinum complexes as antitumor agents” (AnorMED, Inc., priority 2000, dated 2005).

Where two headings read alike, the source gives them in different places.

Data set [1] has as its system CH1. In words: Cell proliferation, human cancer cell line CH1. Conditions: read-out: concentration necessary to achieve a 50% decrease in cell proliferation. The format is cell-based. The method, then:
(§1) The complexes of the invention were tested against human cancer cell lines grown in cell culture according to established testing procedures (described by Holford, et al., British J. Cancer 1998 77(3) 366-373). The results are given in concentrations (μM) necessary to achieve a 50% decrease in cell proliferation, with resistance factors in brackets for the cisplatin-resistant cell lines.

Data set [2] deals with 41M. The experiment in a line: Cell proliferation, human cancer cell line 41M. The format is cell-based. Particulars: read-out: concentration necessary to achieve a 50% decrease in cell proliferation. The method, then:
as §1

The test system of data set [3] is A2780R. The experiment in a line: Cell proliferation, cisplatin-resistant human cancer cell line A2780R. Particulars: for resistance factor: A2780R/A2780, in brackets; for IC50: A2780R, read-out: concentration necessary to achieve a 50% decrease in cell proliferation. Format: cell-based. The method, then:
as §1

Data set [4] deals with CH1R. The experiment in a line: Cell proliferation, cisplatin-resistant human cancer cell line CH1R. Format: cell-based. Conditions: for resistance factor: CH1R/CH1, in brackets; for IC50: CH1R, read-out: concentration necessary to achieve a 50% decrease in cell proliferation. The method, then:
as §1

Data set [5] deals with 41MR. In words: Cell proliferation, cisplatin-resistant human cancer cell line 41MR. Format: cell-based. Particulars: for resistance factor: 41MR/41M, in brackets; for IC50: 41MR, read-out: concentration necessary to achieve a 50% decrease in cell proliferation. The method, then: as §1
Data set [6] concerns A2780. In words: Cell proliferation, human cancer cell line A2780. Format: cell-based. Conditions: read-out: concentration necessary to achieve a 50% decrease in cell proliferation. The method, then: as §1
A short description of data set [7]: Maximum tolerated dose in mice. The format is in vivo.
Data set [8] can be described thus: Aqueous solubility at ambient conditions. Format: physicochemical.
The conditions of data set [9]: background statement; cited from earlier work.

On to `Cc1cc(C)[n+]([Pt-2]([NH3+])([Cl])[Cl])[nH]1` [Example 1, (SP-4-3)-amminedichloro(3.5-dimethylpyrazole)platinum(II)], for which the IC50 in data set [1] came out at 2.05 µM; in data set [2] it was 3.5 µM; in data set [3] it was 9.2 µM; in data set [4], 3.8 µM; in data set [5] it was 4.5 µM; in data set [6], 2.7 µM. In addition, the figures for the resistance factor in data set [3], in data set [4] and in [5] were 3.4, 1.9 and 1.3, respectively.
Consider `Cc1cc(C)[n+]([Pt-2]([NH3+])([Cl])[Cl])n1C` [Example 2, (SP-4-3)-amminedichloro(1,3,5-trimethylpyrazole)platinum(II)], for which, in data set [7], the “maximum tolerated dose (MTD)” value is “greater than 50 mg/Kg”. Also, the IC50 in data set [1] turned out to be 9.2 µM; in data set [2], 8.5 µM; in [3], 15.5 µM; in data set [4] it was 11 µM; in data set [5] it was 15.5 µM; in data set [6], 8.5 µM. In data set [3] (A2780/A2780R, compared to cis-ammine(2-methylpyridine)dichloroplatinum(II)), the “decrease in resistance factor” value is 2.6 fold. Also, the results for the resistance factor in data set [3], in data set [4] and in data set [5] were 1.8, 1.2 and 1.8, respectively.
With `Cn1cc[n+]([Pt-2]([NH3+])([Cl])[Cl])c1` [Example 3], the IC50 was 7.6 µM in [1]; 7.4 µM in [2]; 16.5 µM in [3]; 10.5 µM in data set [4]; 12.5 µM in data set [5]; 6.4 µM in data set [6]. Also, the resistance factor is 2.6 in data set [3], 1.4 in data set [4] and 1.7 in data set [5].
`Cc1cc(C)[n+]([Pt-2]([NH3+])([Cl])[Cl])o1` [Example 4]: the IC50 in data set [1] is 3.2 µM; in [2] it was 8 µM; in data set [3] it was 23.5 µM; in [4], 8 µM; in data set [5], 6 µM; in [6], 3.7 µM. Further, the resistance factor in [3] worked out at 6.4; in data set [4] it was 2.5. For the same compound, the “Aqueous Solubility” value in data set [8] worked out at 1270 µg/mL.
As for `Cc1c[n+]([Pt-2]([NH3+])([Cl])[Cl])c(C)cn1` [Example 5], the IC50 came to 5 µM in data set [1]; 11.5 µM in [2]; 35 µM in [3]; 8 µM in data set [4]; 9 µM in data set [5]; 6 µM in [6]. The resistance factor came out at 5.8 in [3] and 1.6 in data set [4].
In the case of `Cc1ncc[n+]([Pt-2]([NH3+])([Cl])[Cl])c1C` [Example 6], the IC50 in data set [1] was 3.2 µM; in data set [2] it was 6.6 µM; in data set [3] it was 17.5 µM; in data set [4], 5.4 µM; in [5], 6.5 µM; in [6], 3.4 µM. Besides, the results for the resistance factor in data set [3] and in data set [4] were 5.1 and 1.7, respectively.
For the compound `Cc1n(C)cc[n+]1[Pt-2]([NH3+])([Cl])[Cl]` [Example 7], the IC50 amounted to 8.3 µM in data set [1]; 9.3 µM in [2]; 17.5 µM in data set [3]; 12 µM in data set [4]; 15 µM in [5]; 7.1 µM in data set [6]. Further, the resistance factor in [3] came to 2.5; in data set [4] it was 1.4; in data set [5], 1.6.
`Cc1[nH]cc[n+]1[Pt-2]([NH3+])([Cl])[Cl]` [Example 8]: the IC50 in data set [1] came out at 5.2 µM; in [2], 21 µM; in data set [4], 12.5 µM; in data set [5], 16.5 µM. In addition, the resistance factor in [4] stood at 2.5; in [5], 0.8.
In the case of `Cc1oc(C)[n+]([Pt-2]([NH3+])([Cl])[Cl])c1C` [Example 10], the IC50 in [1] came out at 5.2 µM; in [2] it was 11.8 µM; in data set [3] it was 40 µM; in data set [4], 9.4 µM; in data set [5], 11.5 µM; in data set [6] it was 9.8 µM. In addition, the results for the resistance factor in data set [3] and in [4] were 4.1 and 1.8, respectively.
For `Cc1cc(C)[n+]([Pt-2]([NH3+])([OH])([OH])([Cl])[Cl])[nH]1` [Example 11, (OC-6-43)amminedichlorodihydroxo-(3.5-dimethylpyrazole)platinum(IV)], the IC50 in data set [1] came to 2 µM; in data set [2] it was 11 µM; in data set [3], 37 µM; in data set [4], 5 µM; in [5] it was 8.2 µM; in data set [6], 7.2 µM. Besides, the results for the resistance factor in data set [3] and in data set [4] were 5.1 and 2.5, respectively.
Consider `Cn1cc[n+]([Pt-2]([NH3+])([OH])([OH])([Cl])[Cl])c1` [Example 12, (OC-6-43)-amminedichlorodihydroxo-(1-methylimidazole)platinum(IV)], for which the IC50 in data set [1] came to 13 µM; in data set [2] it was 23.5 µM; in data set [3], 77 µM; in data set [4], 24.5 µM; in data set [5], 45 µM; in data set [6], 17 µM. Further, the figures for the resistance factor in [3], in data set [4] and in data set [5] were 4.5, 1.9 and 1.9, respectively.
Regarding `CC(=O)[O][Pt-2]([NH3+])([Cl])([Cl])([O]C(C)=O)[n+]1ccnc(C)c1C` [Example 14, (OC-6-43)-amminedichlorodiacetato-(2,3-dimethylpyrazine)platinum(IV)], the IC50 in data set [1] worked out at 9.4 µM; in data set [2], 29 µM; in data set [4], 30 µM; in data set [5], 36 µM. Moreover, the figures for the resistance factor in [4] and in data set [5] were 3.2 and 1.2, respectively.
For `Cc1n(C)cc[n+]1[Pt-2]([NH3+])([OH])([OH])([Cl])[Cl]` [Example 15], the IC50 in [1] was 12 µM; in data set [2], 23 µM; in data set [3], greater than 100 µM; in data set [4], 16.5 µM; in [5], 21 µM; in data set [6], 13.5 µM. For the same compound, the results for the resistance factor in data set [3], in [4] and in data set [5] were greater than 7.4, 1.4 and 0.9, respectively.
In the case of `Cc1c[n+]([Pt-2]([NH3+])([OH])([OH])([Cl])[Cl])c(C)[nH]1` [Example 16], the IC50 was 10 µM in data set [1]; 19 µM in data set [2]; greater than 100 µM in data set [3]; 21 µM in data set [4]; 28 µM in data set [5]; 12.5 µM in data set [6]. The resistance factor in data set [3] is greater than 8; in [4], 2.1; in data set [5], 1.5.
As to `CC(=O)[O][Pt]([NH2])([Cl])([Cl])([NH]C1CCCCC1)[O]C(C)=O` [bis-acetato-ammine(cyclohexylamine)dichloroplatinum(IV), reference compound], the IC50 in data set [2] came out at 0.5 µM; in data set [3], 1.84 µM; in data set [4], 0.4 µM; in [5], 0.6 µM; in data set [6], 0.4 µM. Further, the figures for the resistance factor in data set [3], in [4] and in [5] were 4.6, 4 and 1.2, respectively. Further, in data set [8], the “Aqueous Solubility” value is less than 1000 µg/mL.
In the case of `CCCC(=O)[O][Pt]([NH2])([Cl])([Cl])([NH]C1CCCCC1)[O]C(=O)CCC` [bis-butyrato-ammine(cyclohexylamine)dichloroplatinum(IV), reference compound], the IC50 in data set [1] turned out to be 0.0066 µM; in data set [2] it was 0.072 µM; in [4], 0.024 µM; in data set [5] it was 0.048 µM. In addition, the values for the resistance factor in [4] and in [5] were 3.7 and 0.67, respectively.
As for `[NH2][Pt]1([NH2])[O]C(=O)C2(CCC2)C(=O)[O]1` [carboplatin, diammine[1,1-cyclobutanedicarboxylato (2-)]-O,O′-platinum(II), reference compound], the IC50 in data set [1] is 1.3 µM; in [2], 3.3 µM; in data set [3] it was 25.9 µM; in [4] it was 6 µM; in data set [5], 8.8 µM; in [6] it was 1.8 µM. The Aqueous Solubility in data set [9] is 14000 µg/mL. The resistance factor in data set [4] came to 4.5; in data set [5], 2.7.
For `N.N.[Cl][Pt][Cl]` [cisplatin, [PtCl2(NH3)2], reference compound], in data set [7], the “maximum tolerated dose (MTD)” value came to 11.3 mg/kg. Moreover, the IC50 in data set [1] is 0.11 µM; in data set [2], 0.26 µM; in data set [3], 5.2 µM; in [4] it was 0.71 µM; in data set [5], 1.2 µM; in data set [6], 0.33 µM. The resistance factor in data set [4] is 6.5; in data set [5], 4.6.
Consider “cis-ammine(2-methylpyridine)dichloroplatinum(II) [reference compound]”, for which the IC50 worked out at 2.2 µM in data set [1]; 5.6 µM in data set [2]; 12 µM in data set [3]; 2.1 µM in [4]; 6 µM in data set [5]; 2.5 µM in data set [6]. The figures for the resistance factor in data set [3], in data set [4] and in data set [5] were 4.8, 1 and 1.1, respectively.
